Measurements as given in PubChem BioAssay (NCI).
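96-well plates; 48 h exposure; 5 concentrations. Endpoints by linear interpolation between flanking doses. Not reached: highest tested concentration assigned. Abbreviation: GI50, concentration required for 50% inhibition of growth. At the TGI there is no net growth.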

Legend:
Test in all cases: NCI tumour cell line growth inhibition, 48 h
HOP-62 NSCLC = test system: HOP-62 NSCLC
IGROV1 ovarian = test system: IGROV1 ovarian
MDA-MB-435 = test system: MDA-MB-435
SK-MEL-2 melanoma = test system: SK-MEL-2 melanoma
SK-MEL-28 melanoma = test system: SK-MEL-28 melanoma
SK-MEL-5 melanoma = test system: SK-MEL-5 melanoma
SR leukemia = test system: SR leukemia
SW-620 colon = test system: SW-620 colon
UACC-257 melanoma = test system: UACC-257 melanoma
UACC-62 melanoma = test system: UACC-62 melanoma

SMILES: C#Cc1cccc(NC(=O)Nc2ccc(NC(=O)CCl)cc2)c1
- GI50 (HOP-62 NSCLC): 19 µM
- TGI (HOP-62 NSCLC): > 82.5 µM
- GI50 (IGROV1 ovarian): 12.1 µM
- TGI (IGROV1 ovarian): 25.5 µM
- GI50 (MDA-MB-435): 22.1 µM
- TGI (MDA-MB-435): > 82.5 µM
- GI50 (SK-MEL-2 melanoma): > 82.5 µM
- TGI (SK-MEL-2 melanoma): > 82.5 µM
- GI50 (SK-MEL-28 melanoma): > 82.5 µM
- TGI (SK-MEL-28 melanoma): > 82.5 µM
- GI50 (SK-MEL-5 melanoma): 15.1 µM
- TGI (SK-MEL-5 melanoma): 28.7 µM
- GI50 (SR leukemia): 9.79 µM
- TGI (SR leukemia): 26.7 µM
- GI50 (SW-620 colon): 14.9 µM
- TGI (SW-620 colon): 33.2 µM
- GI50 (UACC-257 melanoma): > 82.5 µM
- TGI (UACC-257 melanoma): > 82.5 µM
- GI50 (UACC-62 melanoma): 17.4 µM
- TGI (UACC-62 melanoma): 61 µM

SMILES: CC1(C)OC2C(CO)OC(n3ccc(=O)[nH]c3=O)C2O1 (stereo not drawn)
- TGI (HOP-62 NSCLC): > 100 µM
- TGI (IGROV1 ovarian): > 100 µM
- TGI (MDA-MB-435): > 100 µM
- TGI (SK-MEL-2 melanoma): > 100 µM
- TGI (SK-MEL-28 melanoma): > 100 µM
- TGI (SK-MEL-5 melanoma): > 100 µM
- TGI (SR leukemia): > 100 µM
- TGI (SW-620 colon): > 100 µM
- TGI (UACC-257 melanoma): > 100 µM
- TGI (UACC-62 melanoma): > 100 µM

SMILES: CCOC(=O)c1cc2c(cc1Cl)SC(N(c1ccc(F)cc1)S(=O)(=O)c1ccc(OC)cc1)=NS2(=O)=O
- GI50 (HOP-62 NSCLC): 35.1 µM
- TGI (HOP-62 NSCLC): > 100 µM
- GI50 (IGROV1 ovarian): 37.7 µM
- TGI (IGROV1 ovarian): > 100 µM
- GI50 (MDA-MB-435): 14.8 µM
- TGI (MDA-MB-435): 44.7 µM
- GI50 (SK-MEL-2 melanoma): 12.4 µM
- TGI (SK-MEL-2 melanoma): 35.1 µM
- GI50 (SK-MEL-28 melanoma): 14.1 µM
- TGI (SK-MEL-28 melanoma): 29 µM
- GI50 (SK-MEL-5 melanoma): 13.6 µM
- TGI (SK-MEL-5 melanoma): 26.5 µM
- GI50 (SR leukemia): 16.8 µM
- TGI (SR leukemia): 37.9 µM
- GI50 (SW-620 colon): 15.9 µM
- TGI (SW-620 colon): 30.6 µM
- GI50 (UACC-62 melanoma): 14.6 µM
- TGI (UACC-62 melanoma): 30.5 µM

SMILES: CNC(=O)c1cc(Oc2ccc3nc(NC(=O)Nc4ccc(Cl)c(Cl)c4)sc3c2)ccn1
- GI50 (HOP-62 NSCLC): 2.24 µM
- TGI (HOP-62 NSCLC): 4 µM
- GI50 (IGROV1 ovarian): 2.55 µM
- TGI (IGROV1 ovarian): 6.75 µM
- GI50 (MDA-MB-435): 2.02 µM
- TGI (MDA-MB-435): 4.62 µM
- GI50 (SK-MEL-2 melanoma): 2.56 µM
- TGI (SK-MEL-2 melanoma): 5.97 µM
- GI50 (SK-MEL-28 melanoma): 1.74 µM
- TGI (SK-MEL-28 melanoma): 3.56 µM
- GI50 (SK-MEL-5 melanoma): 2.24 µM
- TGI (SK-MEL-5 melanoma): 5.58 µM
- GI50 (SR leukemia): 6.47 µM
- TGI (SR leukemia): > 100 µM
- GI50 (SW-620 colon): 8.11 µM
- TGI (SW-620 colon): > 100 µM
- GI50 (UACC-62 melanoma): 2.32 µM
- TGI (UACC-62 melanoma): 7.76 µM

SMILES: Cn1c2ccccc2c2c(=O)n(CCCC(=O)NCC(=O)OC(=NC3CCCCC3)NC3CCCCC3)c3c(-c4ccccc4)nnn3c21
- GI50 (HOP-62 NSCLC): 15.3 µM
- TGI (HOP-62 NSCLC): 36.6 µM
- GI50 (IGROV1 ovarian): 2.84 µM
- TGI (IGROV1 ovarian): 33 µM
- GI50 (MDA-MB-435): 25.3 µM
- TGI (MDA-MB-435): > 100 µM
- GI50 (SK-MEL-2 melanoma): 33.1 µM
- TGI (SK-MEL-2 melanoma): > 100 µM
- GI50 (SK-MEL-5 melanoma): 5.98 µM
- TGI (SK-MEL-5 melanoma): 31.6 µM
- GI50 (SR leukemia): 3.04 µM
- TGI (SR leukemia): 5.09 µM
- GI50 (SW-620 colon): 3.76 µM
- TGI (SW-620 colon): > 100 µM
- GI50 (UACC-257 melanoma): 66.4 µM
- TGI (UACC-257 melanoma): > 100 µM
- GI50 (UACC-62 melanoma): 25.8 µM
- TGI (UACC-62 melanoma): > 100 µM

SMILES: O=c1cc/c(=N\Nc2ccccc2)c(=O)/c1=N/Nc1ccccc1
- GI50 (HOP-62 NSCLC): > 50 µM
- TGI (HOP-62 NSCLC): > 50 µM
- GI50 (IGROV1 ovarian): > 50 µM
- TGI (IGROV1 ovarian): > 50 µM
- GI50 (MDA-MB-435): > 50 µM
- TGI (MDA-MB-435): > 50 µM
- GI50 (SK-MEL-2 melanoma): > 50 µM
- TGI (SK-MEL-2 melanoma): > 50 µM
- GI50 (SK-MEL-5 melanoma): > 50 µM
- TGI (SK-MEL-5 melanoma): > 50 µM
- GI50 (SR leukemia): > 50 µM
- TGI (SR leukemia): > 50 µM
- GI50 (SW-620 colon): > 50 µM
- TGI (SW-620 colon): > 50 µM
- GI50 (UACC-257 melanoma): > 50 µM
- TGI (UACC-257 melanoma): > 50 µM
- GI50 (UACC-62 melanoma): > 50 µM
- TGI (UACC-62 melanoma): > 50 µM

SMILES: CC1C(=O)N=C2C(=CN(Cc3ccccc3)c3ccccc32)C(=O)N1C (stereo not drawn)
- TGI (IGROV1 ovarian): > 100 µM
- TGI (MDA-MB-435): > 100 µM
- TGI (SK-MEL-2 melanoma): > 100 µM
- TGI (SK-MEL-28 melanoma): > 100 µM
- TGI (SK-MEL-5 melanoma): > 100 µM
- TGI (SR leukemia): > 100 µM
- TGI (SW-620 colon): > 100 µM
- TGI (UACC-257 melanoma): > 100 µM
- TGI (UACC-62 melanoma): > 100 µM

SMILES: CCCCCCN1C(=O)/C(=c2\sc3n(c2=O)C2C(NN=3)N(CC)C(=O)N2CC)c2ccccc21 (stereo not drawn)
- GI50 (HOP-62 NSCLC): 1.71 µM
- TGI (HOP-62 NSCLC): > 50 µM
- GI50 (IGROV1 ovarian): 1.63 µM
- TGI (IGROV1 ovarian): > 50 µM
- GI50 (MDA-MB-435): 0.972 µM
- TGI (MDA-MB-435): 2.16 µM
- GI50 (SK-MEL-2 melanoma): 3.06 µM
- TGI (SK-MEL-2 melanoma): > 50 µM
- GI50 (SK-MEL-28 melanoma): 2.09 µM
- TGI (SK-MEL-28 melanoma): > 50 µM
- GI50 (SK-MEL-5 melanoma): 3.48 µM
- TGI (SK-MEL-5 melanoma): > 50 µM
- GI50 (SR leukemia): 1.73 µM
- TGI (SR leukemia): > 50 µM
- GI50 (UACC-257 melanoma): 3.09 µM
- TGI (UACC-257 melanoma): > 50 µM
- GI50 (UACC-62 melanoma): 2.89 µM
- TGI (UACC-62 melanoma): > 50 µM

SMILES: CCCCCCn1c(-c2ccc(C(=O)O/N=C(\N)c3ccc(OC)cc3)cc2)nc(-c2ccccc2)c1-c1ccccc1
- GI50 (HOP-62 NSCLC): 1.9 µM
- TGI (HOP-62 NSCLC): 4.66 µM
- GI50 (IGROV1 ovarian): 0.295 µM
- TGI (IGROV1 ovarian): 0.869 µM
- GI50 (MDA-MB-435): 1.66 µM
- TGI (MDA-MB-435): 3.2 µM
- GI50 (SK-MEL-2 melanoma): 2.93 µM
- TGI (SK-MEL-2 melanoma): 9.46 µM
- GI50 (SK-MEL-28 melanoma): 2.96 µM
- TGI (SK-MEL-28 melanoma): > 100 µM
- GI50 (SK-MEL-5 melanoma): 1.92 µM
- TGI (SK-MEL-5 melanoma): 3.71 µM
- GI50 (SR leukemia): 0.196 µM
- TGI (SR leukemia): 0.528 µM
- GI50 (UACC-257 melanoma): 4.07 µM
- TGI (UACC-257 melanoma): > 100 µM

SMILES: COc1n[n+]([O-])c(C)cc1[N+](=O)[O-]
- GI50 (HOP-62 NSCLC): 16.6 µM
- TGI (HOP-62 NSCLC): 31.5 µM
- GI50 (IGROV1 ovarian): 12.1 µM
- TGI (IGROV1 ovarian): 24.8 µM
- GI50 (MDA-MB-435): 16.2 µM
- TGI (MDA-MB-435): 33.8 µM
- GI50 (SK-MEL-2 melanoma): 11.2 µM
- TGI (SK-MEL-2 melanoma): 24.5 µM
- GI50 (SK-MEL-5 melanoma): 11.3 µM
- TGI (SK-MEL-5 melanoma): 24.5 µM
- GI50 (SR leukemia): 11.1 µM
- TGI (SR leukemia): 31.2 µM
- GI50 (SW-620 colon): 15.7 µM
- TGI (SW-620 colon): 39.6 µM
- GI50 (UACC-257 melanoma): 10.9 µM
- TGI (UACC-257 melanoma): 24.4 µM
- GI50 (UACC-62 melanoma): 10.7 µM
- TGI (UACC-62 melanoma): 23.7 µM
